Measured values taken from patent US20200149049A1, “METHODS AND COMPOSITIONS RELATING TO ANTI-CALCIFICATION” (THE BRIGHAM AND WOMEN'S HOSPITAL, INC., priority 2017, published 2020).
Entries after “also recorded” stand apart in the source; their conditions may differ.

Legend:
Type in all cases: cell-based, human
hCASMCs [1] = test: Gene expression assay (TaqMan real-time PCR) in hCASMCs
Procedure: FIG. 32 depicts graphs of the effects of PPAR agonists on gene expressions in hCASMCs. HCASMCs were maintained under the same condition with FIG. 23A-23C. Next day after cell seeding, medium was changed to 1% FCS DMEM. After 24 hours, hCASMCs were stimulated by 100 nM K-877 (K877), 100 nM GW-501516 (GW) and 100 nM rosiglitazone (Rosi). After 18 hours, the mRNA samples were isolated by TRIzol Reagent.
FIGS. 33A-33D depict the effects of CROT silencing on CDNK1A (FIG. 33A), DUSP1 (FIG. 33B), HMOX1 (FIG. 33C) and SAT1 (FIG. 33D) gene expression in hCASMCs. HCASMCs were maintained under the same condition with FIGS. 23A-23C. The mRNA samples from hCASMCs were isolated using TRIzol Reagent on Day 7. *: P<0.05, **: P<0.01 (vs. NM-siCont or OM-siCont, Student's t-test, N=3).
HCASMCs were maintained under the same condition with FIGS. 23A-23C. BMP7 was not detected. The mRNA samples from hCASMCs were isolated using TRIzol Reagent on Day 7. *: P<0.05 (vs. OM-siCont, Student's t-test, N=3).
FIG. 35 depicts the effects of PPAR agonists GW-501516 on SLC20A1 gene expression in hCASMCs. HCASMCs were maintained under the same condition with FIGS. 23A-23C. HCASMCs were stimulated by 100 nM GW-501516 (GW). After 18 hours, the mRNA samples were isolated by TRIzol Reagent. **: P<0.01, (vs. Control, Student's t-test, N=3).
RNA preparation and real-time PCR. Total RNA from the cell culture was isolated using TRIZol (Life Technologies). Reverse transcription was performed using the QuantiTect Reverse Transcription Kit (Qiagen). The mRNA expression was determined by TaqMan-based real-time PCR reactions (Life Technologies). The following TaqMan probes were used: 4326315E (human β-actin), (human SLC20A1), (human BMP2), (human BMP4), (human BMP7). The expression levels were normalized to β-actin. Results were calculated using the […] method, and presented as fold increase relative to control.

TNAP activity in hCASMCs = test: Tissue non-specific alkaline phosphatase (TNAP) activity in cell cultures; settings: hCASMCs in osteogenic medium with siRNA; Day 14
Procedure: (§1) FIGS. 22A-22C depict the effects of the SORT1, AASS, CROT, IL1R1, ITGBL1, METTL7A and NNMT silencing on calcium deposition and TNAP activity in hCASMCs. HCASMCs were treated with siRNAs in NM. After 3 days, the medium was changed to OM with the siRNA. On Day 21, cells were fixed in 4% formalin for 10 min and washed twice with PBS for Alizarin Red staining. The cells were stained with 2% Alizarin Red solution for 20 min at RT and rinsed twice with water (FIG. 22A). Then, the Alizarin Red was extracted by 10 mM cetylpyridinium chloride and the extracts were measured on the absorbance (540 nm) (FIG. 22B). On Day 14, TNAP activity was determined using Alkaline Phosphatase Activity Colorimetric Assay Kit (FIG. 22C).
(§2) FIGS. 23A-23C depict teffects of the CROT silencing on calcium deposition and TNAP activity in hCASMCs. HCASMCs were treated with siRNAs in NM. After 3 days, the medium was changed to OM with the siRNA. […] Then, the Alizarin Red was extracted by 10 mM cetylpyridinium chloride and the extracts were measured on the absorbance (540 nm) (FIG. 23B). On Day 14, TNAP activity was determined using Alkaline Phosphatase Activity Colorimetric Assay Kit (FIG. 23C). **: P<0.01, ***: P <0.001 (vs. OM-siControl, Student's t-test, N=3-4). […]
Tissue non-specific alkaline phosphatase (TNAP) activity was measured in cell cultures using the Alkaline Phosphatase Activity Colorimetric Assay Kit (BioVision). […]

hCASMCs [2] = test: Mineralization assay (Alizarin Red staining, calcium deposition); settings: hCASMCs in osteogenic medium with siRNA, Day 21
Procedure: as §1
as §2, with “NM.” for “NM. After 3 days, the medium was changed to OM with the siRNA.”
Mineralization assay and activity of tissue non-specific alkaline phosphatase. Mineralized matrix formation was assessed by Alizarin Red staining. […] Aliquots were taken and measured with a spectrophotometer at 540 nm.

| Compound | SLC20A1 gene expression (hCASMCs [1]; PPARδ agonist, after 24 h) | CDKN1A gene expression (hCASMCs [1]; response to PPARδ agonist) | DUSP1 gene expression (hCASMCs [1]; response to PPARδ agonist) | HMOX1 gene expression (hCASMCs [1]; response to PPARδ agonist) | SAT1 gene expression (hCASMCs [1]; response to PPARδ agonist) | TNAP activity (TNAP activity in hCASMCs) | HMOX1 expression (hCASMCs [1]; CROT siRNA, Day 7) | Ca deposition (hCASMCs [2]) |
| --- | --- | --- | --- | --- | --- | --- | --- | --- |
| Cc1cc(SCc2sc(-c3ccc(C(F)(F)F)cc3)nc2C)ccc1OCC(=O)O [PPARδ agonist, GW-501516] | suppressed; also recorded: reduced | affected | affected | affected | affected | – | – | – |
| siCROT: siRNA silencing CROT; patent names inhibitory nucleic acid CACUUCAGCUGGCCUAUUA (SEQ ID NO: 1) as CROT inhibitor (listed as RNA, chemistry not given here) | – | – | – | – | – | decreased | induced | decreased |
